ChEMBL document CHEMBL1154382, “Preliminary SAR analysis of novel antiproliferative N(6),5'-bis-ureidoadenosine derivatives” (2009)

Key:
Format in all cases: functional
Conditions in all cases: values are per cent of control
SNB-19 = test: Antiproliferative activity against human SNB19 cells at 10 uM assessed as cell growth inhibition relative to control
SF-295 = test: Antiproliferative activity against human SF295 cells at 10 uM assessed as cell growth inhibition relative to control
SK-MEL-28 = test: Antiproliferative activity against human SK-MEL-28 cells at 10 uM assessed as cell growth inhibition relative to control
COLO 205 = test: Antiproliferative activity against human COLO205 cells at 10 uM assessed as cell growth inhibition relative to control
HCT-15 = test: Antiproliferative activity against human HCT15 cells at 10 uM assessed as cell growth inhibition relative to control
SW-620 = test: Antiproliferative activity against human SW620 cells at 10 uM assessed as cell growth inhibition relative to control
MOLT-4 = test: Antiproliferative activity against human MOLT4 cells at 10 uM assessed as cell growth inhibition relative to control
M14 = test: Antiproliferative activity against human M14 cells at 10 uM assessed as cell growth inhibition relative to control
OVCAR-8 = test: Antiproliferative activity against human OVCAR8 cells at 10 uM assessed as cell growth inhibition relative to control
[1] = Antiproliferative activity against human […] cells at 10 uM assessed as cell growth inhibition relative to control
SK-OV-3 = test: Antiproliferative activity against human SKOV3 cells at 10 uM assessed as cell growth inhibition relative to control
OVCAR-5 = test: Antiproliferative activity against human OVCAR5 cells at 10 uM assessed as cell growth inhibition relative to control
NCI-H23 = test: Antiproliferative activity against human NCI-H23 cells at 10 uM assessed as cell growth inhibition relative to control
UO-31 = test: Antiproliferative activity against human UO31 cells at 10 uM assessed as cell growth inhibition relative to control
OVCAR-4 = test: Antiproliferative activity against human OVCAR4 cells at 10 uM assessed as cell growth inhibition relative to control
OVCAR-3 = test: Antiproliferative activity against human OVCAR-3 cells at 10 uM assessed as cell growth inhibition relative to control
RXF 393 = test: Antiproliferative activity against human RXF393 cells at 10 uM assessed as cell growth inhibition relative to control
UACC-62 = test: Antiproliferative activity against human UACC62 cells at 10 uM assessed as cell growth inhibition relative to control
T47D = test: Antiproliferative activity against human T47D cells at 10 uM assessed as cell growth inhibition relative to control
NCI-H460 = test: Antiproliferative activity against human NCI-H460 cells at 10 uM assessed as cell growth inhibition relative to control
HOP-62 = test: Antiproliferative activity against human HOP62 cells at 10 uM assessed as cell growth inhibition relative to control
IGROV-1 = test: Antiproliferative activity against human IGROV1 cells at 10 uM assessed as cell growth inhibition relative to control
SK-MEL-2 = test: Antiproliferative activity against human SK-MEL-2 cells at 10 uM assessed as cell growth inhibition relative to control
SK-MEL-5 = test: Antiproliferative activity against human SK-MEL-5 cells at 10 uM assessed as cell growth inhibition relative to control
BT-549 = test: Antiproliferative activity against human BT549 cells at 10 uM assessed as cell growth inhibition relative to control
LOX IMVI = test: Antiproliferative activity against human LOXIMVI cells at 10 uM assessed as cell growth inhibition relative to control
NCI-H522 = test: Antiproliferative activity against human NCI-H522 cells at 10 uM assessed as cell growth inhibition relative to control
SF-539 = test: Antiproliferative activity against human SF539 cells at 10 uM assessed as cell growth inhibition relative to control
DU-145 = test: Antiproliferative activity against human DU145 cells at 10 uM assessed as cell growth inhibition relative to control
Malme-3M = test: Antiproliferative activity against human MALME-3M cells at 10 uM assessed as cell growth inhibition relative to control
CCRF-CEM = test: Antiproliferative activity against human CCRF-CEM cells at 10 uM assessed as cell growth inhibition relative to control
KM12 = test: Antiproliferative activity against human KM12 cells at 10 uM assessed as cell growth inhibition relative to control
CAKI-1 = test: Antiproliferative activity against human Caki1 cells at 10 uM assessed as cell growth inhibition relative to control
UACC-257 = test: Antiproliferative activity against human UACC257 cells at 10 uM assessed as cell growth inhibition relative to control
SNB-75 = test: Antiproliferative activity against human SNB75 cells at 10 uM assessed as cell growth inhibition relative to control
A549 = test: Antiproliferative activity against human A549 cells at 10 uM assessed as cell growth inhibition relative to control
TK-10 = test: Antiproliferative activity against human TK10 cells at 10 uM assessed as cell growth inhibition relative to control
HL-60(TB) = test: Antiproliferative activity against human HL-60(TB) cells at 10 uM assessed as cell growth inhibition relative to control
SF-268 = test: Antiproliferative activity against human SF268 cells at 10 uM assessed as cell growth inhibition relative to control
HOP-92 = test: Antiproliferative activity against human HOP92 cells at 10 uM assessed as cell growth inhibition relative to control
HCT-116 = test: Antiproliferative activity against human HCT116 cells at 10 uM assessed as cell growth inhibition relative to control
[2] = Antiproliferative activity against human Hs 578T cells at 10 uM assessed as cell growth inhibition relative to control
PC-3 = test: Antiproliferative activity against human PC3 cells at 10 uM assessed as cell growth inhibition relative to control
MDA-MB-231 = test: Antiproliferative activity against human MDA-MB-231 cells at 10 uM assessed as cell growth inhibition relative to control
786-0 = test: Antiproliferative activity against human 786-0 cells at 10 uM assessed as cell growth inhibition relative to control
K562 = test: Antiproliferative activity against human K562 cells at 10 uM assessed as cell growth inhibition relative to control
NCI-H226 = test: Antiproliferative activity against human NCI-H226 cells at 10 uM assessed as cell growth inhibition relative to control
ACHN = test: Antiproliferative activity against human ACHN cells at 10 uM assessed as cell growth inhibition relative to control
EKVX = test: Antiproliferative activity against human EKVX cells at 10 uM assessed as cell growth inhibition relative to control
HCC 2998 = test: Antiproliferative activity against human HCC2998 cells at 10 uM assessed as cell growth inhibition relative to control
MCF7 = test: Antiproliferative activity against human MCF7 cells at 10 uM assessed as cell growth inhibition relative to control
MDA-MB-468 = test: Antiproliferative activity against human MDA-MB-468 cells at 10 uM assessed as cell growth inhibition relative to control
NCI-H322M = test: Antiproliferative activity against human NCI-H322M cells at 10 uM assessed as cell growth inhibition relative to control
SN12C = test: Antiproliferative activity against human SN12C cells at 10 uM assessed as cell growth inhibition relative to control
A498 = test: Antiproliferative activity against human A498 cells at 10 uM assessed as cell growth inhibition relative to control
U-251 = test: Antiproliferative activity against human U251 cells at 10 uM assessed as cell growth inhibition relative to control
HT-29 = test: Antiproliferative activity against human HT-29 cells at 10 uM assessed as cell growth inhibition relative to control

Compound: CCOC(=O)C[C@H]1[C@@H](O[Si](C)(C)C(C)(C)C)[C@H](n2cnc3c(N)ncnc32)O[C@@H]1CO
- growth, % of control at 10 µM (SNB-19): 103%
- growth, % of control at 10 µM (SF-295): 97%
- growth, % of control at 10 µM (SK-MEL-28): 112%
- growth, % of control at 10 µM (COLO 205): 109%
- growth, % of control at 10 µM (HCT-15): 91%
- growth, % of control at 10 µM (SW-620): 103%
- growth, % of control at 10 µM (MOLT-4): 74%
- growth, % of control at 10 µM (M14): 99%
- growth, % of control at 10 µM (OVCAR-8): 103%
- growth, % of control at 10 µM [1]: 99%
- growth, % of control at 10 µM (SK-OV-3): 103%
- growth, % of control at 10 µM (OVCAR-5): 101%
- growth, % of control at 10 µM (NCI-H23): 107%
- growth, % of control at 10 µM (UO-31): 72%
- growth, % of control at 10 µM (OVCAR-4): 97%
- growth, % of control at 10 µM (OVCAR-3): 98%
- growth, % of control at 10 µM (RXF 393): 112%
- growth, % of control at 10 µM (UACC-62): 73%
- growth, % of control at 10 µM (T47D): 82%
- growth, % of control at 10 µM (NCI-H460): 101%
- growth, % of control at 10 µM (HOP-62): 91%
- growth, % of control at 10 µM (IGROV-1): 90%
- growth, % of control at 10 µM (SK-MEL-2): 106%
- growth, % of control at 10 µM (SK-MEL-5): 81%
- growth, % of control at 10 µM (BT-549): 79%
- growth, % of control at 10 µM (LOX IMVI): 92%
- growth, % of control at 10 µM (NCI-H522): 92%
- growth, % of control at 10 µM (SF-539): 91%
- growth, % of control at 10 µM (DU-145): 93%
- growth, % of control at 10 µM (Malme-3M): 93%
- growth, % of control at 10 µM (CCRF-CEM): 83%
- growth, % of control at 10 µM (KM12): 109%
- growth, % of control at 10 µM (CAKI-1): 92%
- growth, % of control at 10 µM (UACC-257): 105%
- growth, % of control at 10 µM (SNB-75): 75%
- growth, % of control at 10 µM (A549): 100%
- growth, % of control at 10 µM (TK-10): 94%
- growth, % of control at 10 µM (HL-60(TB)): 89%
- growth, % of control at 10 µM (SF-268): 98%
- growth, % of control at 10 µM (HOP-92): 81%
- growth, % of control at 10 µM (HCT-116): 94%
- growth, % of control at 10 µM [2]: 102%
- growth, % of control at 10 µM (PC-3): 85%
- growth, % of control at 10 µM (MDA-MB-231): 90%
- growth, % of control at 10 µM (786-0): 97%
- growth, % of control at 10 µM (K562): 84%
- growth, % of control at 10 µM (NCI-H226): 90%
- growth, % of control at 10 µM (ACHN): 102%
- growth, % of control at 10 µM (EKVX): 75%
- growth, % of control at 10 µM (HCC 2998): 104%
- growth, % of control at 10 µM (MCF7): 89%
- growth, % of control at 10 µM (MDA-MB-468): 94%
- growth, % of control at 10 µM (NCI-H322M): 91%
- growth, % of control at 10 µM (SN12C): 85%
- growth, % of control at 10 µM (A498): 98%
- growth, % of control at 10 µM (U-251): 99%
- growth, % of control at 10 µM (HT-29): 98%
